Assay [1] deals with T1, DDB1DB/DCAF15 and RBM39 R1R2 complex (Homo sapiens, UniProt Q14498+Q66K64).
T1 construct: Amino acids 150 to 331 of RBM39 were cloned into pGEX4T3; GST (from vector pGEX4T3); TEV cleavage site (N); made in house; host or cells: DDB1DB/His-DCAF15: baculovirus/Sf9 co-expression; RBM39 R1R2: E. coli (pGEX4T3)
Nature of the assay: DCAF15 RBM39 Complex Formation Assay (FRET). Type of assay: binding. Conditions: FRET ratio Em 665/Em 615, incubated overnight at 4° C. The text has this: LANCE Eu-W1024 Anti-6×His and SureLight Allophycocyanin-anti-FLAG antibodies were purchased from Perkin Elmer. Human DDB1DB and His-tagged DCAF15 were co-expressed in baculovirus/sf9 system. While full length DDB1 contains three 7-bladed propellers termed A, B, and C, DDB1DB has only propeller A (amino acids 1 to 395) and C (amino acids 709-1140). The His-tagged DCAF15 contains six histidine residues directly preceding the DCAF15 sequence without any linker. An RBM39 fragment containing RRM1 and RRM2 was expressed in E. coli. Amino acids 150 to 331 of RBM39 were cloned into pGEX4T3 with an N-terminal TEV cleavage site and a C-terminal FLAG tag.
A compound of the present disclosure in DMSO (2 μL) was transferred to a 384-well assay plate. Compound was added in 14 points, 3-fold serial dilution (1 μM to 0.6 pico molar) in DMSO. […] FRET assay buffer (25 mM HEPES, pH 7.5, 100 mM NaCl, […], 0.5 mM TCEP, 0.005% Tween-20, 0.2 nM Eu—W1024 Anti-6×His, 50 nM SureLight Allophycocyanin-anti-FLAG, 20 nM DDB1DB/DCAF15, 50 nM RBM39 R1R2) was added and the resulting solution was incubated overnight at 4° C. The plate was placed in a plate reader (Spark 10) with excitation at 1=340 nm and emissions monitored at 1=665 nm and 1=615 nm, and the FRET ratio (Em 665/Em 615) was determined. Low signal controls containing no compound and high signal controls containing 10 mM indisulam were measured for each plate.
EC50 values were calculated using Dotmatics template equation for 4-parameter fit. Results are expressed as % formation using the following equation: […]

Assay [2] has as its system HCT116 human colorectal carcinoma cells. Nature of the assay: CellTiter-Glo Luminescent Cell Viability Assay. Type of assay: cell-based. Conditions: HCT-116, 72 h, 3 days. The method, then: HCT116 human colorectal carcinoma cells were used in these experiments. HCT116 cells were obtained from ATCC. CellTiter-Glo® Luminescent Cell Viability Assay Reagent was obtained from Promega.
About 3,000 cells were seeded into 96-well plate with […] of media (DMEM supplemented with 10% FBS, 100 units penicillin, and […] streptomycin per mL) the day before the experiment. For compound treatment, the master plate was prepared as follows: 100× compound stocks were prepared in a 96-well plate by 1 to 3 serial dilutions of 0.5 mM DMSO stocks. Each master plate contained serial dilution of 8 compounds, including the control compound E7820. […] of 100× compound stock was added to each well of the assay plate to give final concentrations of […]. Each concentration was tested in triplicate. After 3 days, cell viability was determined using CellTiter-Glo Luminescent Cell Viability Assay Reagent following the manufacturer's recommended protocol. Briefly, […] of CellTiter-Glo reagent was added to each well of the assay plate and the contents were mixed for 3 minutes at 600 rpm on a shaker (Thermomixer R). The plate was immediately placed in a plate reader (Synergy 2) and the luminescence signal (0.5 second per well integration time) was determined. IC50 values were calculated using Dotmatics software.

T1 sequence (Q66K64 whole entry, the tested form may be a part): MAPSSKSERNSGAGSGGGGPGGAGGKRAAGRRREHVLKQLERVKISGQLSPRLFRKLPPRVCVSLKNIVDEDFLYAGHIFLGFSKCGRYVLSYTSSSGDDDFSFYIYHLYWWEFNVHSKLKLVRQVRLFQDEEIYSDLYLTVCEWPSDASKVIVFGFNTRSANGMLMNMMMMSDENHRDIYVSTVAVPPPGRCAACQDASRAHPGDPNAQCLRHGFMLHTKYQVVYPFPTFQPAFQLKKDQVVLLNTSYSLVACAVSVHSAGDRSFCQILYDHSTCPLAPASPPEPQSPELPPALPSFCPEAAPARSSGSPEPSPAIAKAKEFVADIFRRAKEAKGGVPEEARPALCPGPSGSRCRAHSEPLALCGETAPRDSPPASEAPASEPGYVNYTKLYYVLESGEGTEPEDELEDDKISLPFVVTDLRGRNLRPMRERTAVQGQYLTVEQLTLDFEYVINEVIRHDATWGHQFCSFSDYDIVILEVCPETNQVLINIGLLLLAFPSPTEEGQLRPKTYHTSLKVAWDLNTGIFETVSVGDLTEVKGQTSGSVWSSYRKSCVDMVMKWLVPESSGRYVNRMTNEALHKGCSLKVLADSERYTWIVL
T1 sequence (Q14498 150-331): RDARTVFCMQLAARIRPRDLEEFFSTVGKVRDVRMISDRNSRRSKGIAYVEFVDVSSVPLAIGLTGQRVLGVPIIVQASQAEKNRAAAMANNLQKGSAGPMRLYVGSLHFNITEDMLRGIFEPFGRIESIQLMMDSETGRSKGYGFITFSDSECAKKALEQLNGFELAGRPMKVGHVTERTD
T1 sequence (Q16531 with tags, fused parts or gaps DEL396-708 partner): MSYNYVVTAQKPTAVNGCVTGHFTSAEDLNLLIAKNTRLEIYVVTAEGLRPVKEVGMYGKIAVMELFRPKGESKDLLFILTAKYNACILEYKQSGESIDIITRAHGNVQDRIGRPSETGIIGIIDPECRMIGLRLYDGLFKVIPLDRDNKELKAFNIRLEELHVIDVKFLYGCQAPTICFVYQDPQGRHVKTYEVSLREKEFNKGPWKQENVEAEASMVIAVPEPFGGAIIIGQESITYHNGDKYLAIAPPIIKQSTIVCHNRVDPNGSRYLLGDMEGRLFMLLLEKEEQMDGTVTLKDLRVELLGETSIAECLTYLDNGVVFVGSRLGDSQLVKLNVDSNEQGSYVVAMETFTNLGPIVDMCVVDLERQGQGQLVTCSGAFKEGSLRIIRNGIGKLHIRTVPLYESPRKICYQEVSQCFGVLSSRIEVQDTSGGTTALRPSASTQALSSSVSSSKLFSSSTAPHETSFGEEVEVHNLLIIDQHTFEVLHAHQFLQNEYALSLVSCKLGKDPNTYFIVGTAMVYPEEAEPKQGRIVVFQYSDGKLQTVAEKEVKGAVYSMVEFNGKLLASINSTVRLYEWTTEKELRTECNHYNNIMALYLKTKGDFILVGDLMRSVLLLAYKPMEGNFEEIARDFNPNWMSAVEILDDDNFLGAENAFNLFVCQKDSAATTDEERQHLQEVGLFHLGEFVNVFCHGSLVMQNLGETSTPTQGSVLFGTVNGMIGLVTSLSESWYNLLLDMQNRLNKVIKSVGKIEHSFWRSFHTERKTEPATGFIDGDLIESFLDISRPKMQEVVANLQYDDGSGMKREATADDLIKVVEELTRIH

For the compound `Cn1cc(S(=O)(=O)Nc2cccc3c(Cl)c[nH]c23)cn1` [Compound 1, N-(3-chloro-1H-indol-7-yl)-1-methyl-1H-pyrazole-4-sulfonamide], in assay [1], the IC50 (commonly the point on the concentration scale where inhibition reaches its midpoint) is less than 250 nM. For the same compound, the EC50 (commonly the midpoint of the concentration-response curve) in assay [2] was 250 to 1000 nM.

`O=S(=O)(Nc1cccc2c(Cl)c[nH]c12)c1cnn(C(F)F)c1` [Compound 6, N-(3-chloro-1H-indol-7-yl)-1-(difluoromethyl)pyrazole-4-sulfonamide]: the IC50 in assay [1] is less than 250 nM. For the same compound, the EC50 in assay [2] was 250 to 1000 nM.

On to `O=S(=O)(Nc1cccc2c(Cl)c[nH]c12)c1cnn(CC(F)F)c1` [Compound 7, N-(3-chloro-1H-indol-7-yl)-1-(2,2-difluoroethyl)pyrazole-4-sulfonamide], for which, in assay [1], the IC50 is less than 250 nM. In addition, the EC50 in assay [2] was 250 to 1000 nM.

Regarding `CS(=O)(=O)CCn1cc(S(=O)(=O)Nc2cccc3c(Cl)c[nH]c23)cn1` [Compound 9, N-(3-chloro-1H-indol-7-yl)-1-(2-methylsulfonylethyl)pyrazole-4-sulfonamide], the IC50 in assay [1] was less than 250 nM. For the same compound, the EC50 in assay [2] fell in the range of 250 to 1000 nM.

Take `Cc1ccc(NS(=O)(=O)c2cnn(C(F)F)c2)c2[nH]cc(C#N)c12` [Compound 11, N-(3-cyano-4-methyl-1H-indol-7-yl)-1-(difluoromethyl)pyrazole-4-sulfonamide]: the IC50 in assay [1] is less than 250 nM. In addition, the EC50 in assay [2] lay within 250 to 1000 nM.

Turning to `CC(C)(C)OC(=O)N1CC(n2cc(S(=O)(=O)Nc3cccc4c(Cl)c[nH]c34)cn2)C1` [Compound 12, tert-butyl 3-[4-[(3-chloro-1H-indol-7-yl)sulfamoyl]pyrazol-1-yl]azetidine-1-carboxylate], the IC50 in assay [1] was less than 250 nM. The EC50 in assay [2] fell in the range of 250 to 1000 nM.

Turning to `O=S(=O)(Nc1cccc2c(Cl)c[nH]c12)c1cnn(CCO)c1` [Compound 13, N-(3-chloro-1H-indol-7-yl)-1-(2-hydroxyethyl)pyrazole-4-sulfonamide], the IC50 in assay [1] was less than 250 nM. In assay [2], the EC50 was in the range of 250 to 1000 nM.

Take `N#CCn1cc(S(=O)(=O)Nc2cccc3c(Cl)c[nH]c23)cn1` [Compound 14, N-(3-chloro-1H-indol-7-yl)-1-(cyanomethyl)pyrazole-4-sulfonamide]: in assay [1], the IC50 is less than 250 nM. In assay [2], the EC50 was greater than 1000 nM.

Take `O=S(=O)(Nc1cccc2c(Cl)c[nH]c12)c1cnn(-c2ncc(Cl)cc2F)c1` [Compound 15, 1-(5-chloro-3-fluoro-2-pyridyl)-N-(3-chloro-1H-indol-7-yl)pyrazole-4-sulfonamide]: the IC50 in assay [1] was less than 250 nM. In addition, the EC50 in assay [2] was greater than 1000 nM.

Turning to `NC(=O)Cn1cc(S(=O)(=O)Nc2cccc3c(Cl)c[nH]c23)cn1` [Compound 16, 2-[4-[(3-chloro-1H-indol-7-yl)sulfamoyl]pyrazol-1-yl]acetamide], in assay [1], the IC50 is less than 250 nM. Also, the EC50 in assay [2] is 250 to 1000 nM.

For the compound `NC(=O)Cn1cc(S(=O)(=O)n2cc(S(=O)(=O)Nc3cccc4c(Cl)c[nH]c34)cn2)cn1` [Compound 17, 2-[4-[4-[(3-chloro-1H-indol-7-yl)sulfamoyl]pyrazol-1-yl]sulfonylpyrazol-1-yl]acetamide], the IC50 in assay [1] is less than 250 nM. The EC50 in assay [2] lay within 250 to 1000 nM.

`O=S(=O)(Nc1cccc2c(Cl)c[nH]c12)c1cnn(C2CNC2)c1` [Compound 18, 1-(azetidin-3-yl)-N-(3-chloro-1H-indol-7-yl)pyrazole-4-sulfonamide]: the IC50 in assay [1] was in the range of 250 to 1000 nM. For the same compound, the EC50 in assay [2] is greater than 1000 nM.

Take `O=S(=O)(Nc1cccc2c(Cl)c[nH]c12)c1cnn(S(=O)(=O)c2cn[nH]c2)c1` [Compound 19, N-(3-chloro-1H-indol-7-yl)-1-(1H-pyrazol-4-ylsulfonyl)pyrazole-4-sulfonamide]: the IC50 in assay [1] was less than 250 nM. Also, the EC50 in assay [2] is 250 to 1000 nM.

Regarding `O=S(=O)(Nc1cccc2c(Cl)c[nH]c12)c1cnn(C2CCOCC2)c1` [Compound 20, N-(3-chloro-1H-indol-7-yl)-1-tetrahydropyran-4-yl-pyrazole-4-sulfonamide], the IC50 in assay [1] lay in the range of 250 to 1000 nM. In addition, in assay [2], the EC50 was greater than 1000 nM.

For the compound `O=S(=O)(Nc1cccc2c(Cl)c[nH]c12)c1cnn(-c2ccc(F)cn2)c1` [Compound 21, N-(3-chloro-1H-indol-7-yl)-1-(5-fluoro-2-pyridyl)pyrazole-4-sulfonamide], the IC50 in assay [1] fell in the range of 250 to 1000 nM. In addition, in assay [2], the EC50 is greater than 1000 nM.

Take `N#Cc1cc(C(F)(F)F)ccc1-n1cc(S(=O)(=O)Nc2cccc3c(Cl)c[nH]c23)cn1` [Compound 22, N-(3-chloro-1H-indol-7-yl)-1-[2-cyano-4-(trifluoromethyl)phenyl]pyrazole-4-sulfonamide]: the IC50 in assay [1] is greater than 1000 nM. Further, the EC50 in assay [2] was greater than 1000 nM.

Turning to `COCCOCCn1cc(S(=O)(=O)Nc2cccc3c(Cl)c[nH]c23)cn1` [Compound 23, N-(3-chloro-1H-indol-7-yl)-1-[2-(2-methoxyethoxy)ethyl]pyrazole-4-sulfonamide], the IC50 in assay [1] is less than 250 nM. In assay [2], the EC50 was greater than 1000 nM.

For `COCCOCCOCCn1cc(S(=O)(=O)Nc2cccc3c(Cl)c[nH]c23)cn1` [Compound 24, N-(3-chloro-1H-indol-7-yl)-1-[2-[2-(2-methoxyethoxy)ethoxy)ethyl]pyrazole-4-sulfonamide], the IC50 in assay [1] lay in the range of 250 to 1000 nM. Moreover, the EC50 in assay [2] is greater than 1000 nM.

Consider `Cc1ccc(NS(=O)(=O)c2cnn(CCO)c2)c2[nH]cc(C#N)c12` [Compound 25, N-(3-cyano-4-methyl-1H-indol-7-yl)-1-(2-hydroxyethyl)-1H-pyrazole-4-sulfonamide], for which the IC50 in assay [1] was less than 250 nM. Moreover, the EC50 in assay [2] was 250 to 1000 nM.

On to `CC(C)(C)OC(=O)N1CCC(n2cc(S(=O)(=O)Nc3cccc4c(Cl)c[nH]c34)cn2)CC1` [Compound 26, tert-butyl 4-[4-[(3-chloro-1H-indol-7-yl)sulfamoyl]pyrazol-1-yl]piperidine-1-carboxylate], for which the IC50 in assay [1] is less than 250 nM. Moreover, in assay [2], the EC50 is greater than 1000 nM.

On to `CC(=O)N1CC(n2cc(S(=O)(=O)Nc3cccc4c(Cl)c[nH]c34)cn2)C1` [Compound 27, 1-(1-acetylazetidin-3-yl)-N-(3-chloro-1H-indol-7-yl)pyrazole-4-sulfonamide], for which the IC50 in assay [1] is less than 250 nM. Besides, in assay [2], the EC50 is greater than 1000 nM.

In the case of `CC1(Cn2cc(S(=O)(=O)Nc3cccc4c(Cl)c[nH]c34)cn2)COC1` [Compound 28, N-(3-chloro-1H-indol-7-yl)-1-[(3-methyloxetan-3-yl)methyl]pyrazole-4-sulfonamide], the IC50 in assay [1] is less than 250 nM. Also, in assay [2], the EC50 was 250 to 1000 nM.

Turning to `Cc1ccc(NS(=O)(=O)c2cnn(C3CCOC3)c2)c2[nH]cc(C#N)c12` (centres unmarked) [Compound 29, N-(3-cyano-4-methyl-1H-indol-7-yl)-1-tetrahydrofuran-3-yl-pyrazole-4-sulfonamide], in assay [1], the IC50 was less than 250 nM. In addition, in assay [2], the EC50 was in the range of 250 to 1000 nM.

Take `O=S(=O)(Nc1cccc2c(Cl)c[nH]c12)c1cnn(-c2ccc(C(F)(F)F)cn2)c1` [Compound 30, N-(3-chloro-1H-indol-7-yl)-1-[5-(trifluoromethyl)-2-pyridyl]pyrazole-4-sulfonamide]: in assay [1], the IC50 is greater than 1000 nM. Further, the 50% effective concentration (EC50) in assay [2] is greater than 1000 nM.

For the compound `Cc1ccc(NS(=O)(=O)c2cnn(-c3ccc(C(F)(F)F)cn3)c2)c2[nH]cc(C#N)c12` [Compound 31, N-(3-cyano-4-methyl-1H-indol-7-yl)-1-[5-(trifluoromethyl)-2-pyridyl]pyrazole-4-sulfonamide], in assay [1], the IC50 is less than 250 nM. Also, the EC50 in assay [2] is greater than 1000 nM.

Source of the values: US20250368627A1, “PYRAZOLESULFONAMIDES AS ANTITUMOR AGENTS” (Peloton Therapeutics, Inc., a fully owned subsidiary of …, priority 2019, published 2025).
